Data from the NIST ThermoML archive (doi:10.1021/je300175w).
Where “and” joins values, the source holds several entries; their conditions need not be identical. Identical values can stand only once. Numbers after ± are expanded uncertainties.

Test: mn = molality of the nth substance listed, in mol/kg
Conditions: 101 kPa, Liquid; for mass density: Vibrating tube method; for speed of sound: Sing-around technique in a fixed-path interferometer

OCC(CO)(CO)CO [2,2-bis(hydroxymethyl)-1,3-propanediol] + O
mass density (273.15 K, m1 = 0.1002): 1003.54 ± 0.035 kg/m3 and 1003.55 ± 0.035 kg/m3 | mass density (273.15 K, m1 = 0.1501): 1005.3 ± 0.036 kg/m3 and 1005.29 ± 0.036 kg/m3 | mass density (273.15 K, m1 = 0.2001): 1007.05 ± 0.037 kg/m3 and 1007.04 ± 0.037 kg/m3 | mass density (273.15 K, m1 = 0.2503): 1008.77 ± 0.038 kg/m3 | mass density (273.15 K, m1 = 0.3005): 1010.48 ± 0.039 kg/m3 | mass density (273.15 K, m1 = 0.35): 1012.15 ± 0.04 kg/m3 and 1012.16 ± 0.04 kg/m3 | speed of sound (278.15 K, m1 = 0.1002): 1432.6 ± 0.72 m/s and 1432.7 ± 0.72 m/s | speed of sound (278.15 K, m1 = 0.1501): 1435.8 ± 0.73 m/s | speed of sound (278.15 K, m1 = 0.2001): 1439 ± 0.73 m/s | speed of sound (278.15 K, m1 = 0.2503): 1442.1 ± 0.73 m/s and 1442.2 ± 0.73 m/s | speed of sound (278.15 K, m1 = 0.3005): 1445.3 ± 0.73 m/s | speed of sound (278.15 K, m1 = 0.35): 1448.3 ± 0.73 m/s and 1448.4 ± 0.73 m/s | speed of sound (283.15 K, m1 = 0.1002): 1453.3 ± 0.73 m/s | speed of sound (283.15 K, m1 = 0.1501): 1456.2 ± 0.73 m/s and 1456.3 ± 0.73 m/s | speed of sound (283.15 K, m1 = 0.2001): 1459.2 ± 0.73 m/s | speed of sound (283.15 K, m1 = 0.2503): 1462.2 ± 0.74 m/s | speed of sound (283.15 K, m1 = 0.3005): 1465.1 ± 0.74 m/s | speed of sound (283.15 K, m1 = 0.35): 1468 ± 0.74 m/s | mass density (283.15 K, m1 = 0.1002): 1003.23 ± 0.035 kg/m3 | mass density (283.15 K, m1 = 0.1501): 1004.96 ± 0.036 kg/m3 | mass density (283.15 K, m1 = 0.2001): 1006.68 ± 0.037 kg/m3 and 1006.69 ± 0.037 kg/m3 | mass density (283.15 K, m1 = 0.2503): 1008.38 ± 0.038 kg/m3 and 1008.39 ± 0.038 kg/m3 | mass density (283.15 K, m1 = 0.3005): 1010.07 ± 0.039 kg/m3 and 1010.08 ± 0.039 kg/m3 | mass density (283.15 K, m1 = 0.35): 1011.72 ± 0.04 kg/m3 and 1011.73 ± 0.04 kg/m3 | speed of sound (288.15 K, m1 = 0.1002): 1471.6 ± 0.74 m/s | speed of sound (288.15 K, m1 = 0.1501): 1474.4 ± 0.74 m/s | speed of sound (288.15 K, m1 = 0.2001): 1477.2 ± 0.74 m/s | speed of sound (288.15 K, m1 = 0.2503): 1479.9 ± 0.74 m/s | speed of sound (288.15 K, m1 = 0.3005): 1482.6 ± 0.74 m/s and 1482.7 ± 0.74 m/s | speed of sound (288.15 K, m1 = 0.35): 1485.3 ± 0.75 m/s and 1485.4 ± 0.75 m/s | mass density (288.15 K, m1 = 0.1002): 1002.59 ± 0.035 kg/m3 | mass density (288.15 K, m1 = 0.1501): 1004.3 ± 0.036 kg/m3 | mass density (288.15 K, m1 = 0.2001): 1006 ± 0.037 kg/m3 and 1006.01 ± 0.037 kg/m3 | mass density (288.15 K, m1 = 0.2503): 1007.68 ± 0.038 kg/m3 and 1007.69 ± 0.038 kg/m3 | mass density (288.15 K, m1 = 0.3005): 1009.35 ± 0.038 kg/m3 and 1009.36 ± 0.038 kg/m3 | mass density (288.15 K, m1 = 0.35): 1010.98 ± 0.039 kg/m3 and 1010.99 ± 0.039 kg/m3 | speed of sound (293.15 K, m1 = 0.1002): 1487.7 ± 0.74 m/s | speed of sound (293.15 K, m1 = 0.1501): 1490.3 ± 0.74 m/s | speed of sound (293.15 K, m1 = 0.2001): 1492.9 ± 0.75 m/s and 1492.8 ± 0.75 m/s | speed of sound (293.15 K, m1 = 0.2503): 1495.5 ± 0.75 m/s | speed of sound (293.15 K, m1 = 0.3005): 1498 ± 0.75 m/s and 1498.1 ± 0.75 m/s | speed of sound (293.15 K, m1 = 0.35): 1500.6 ± 0.75 m/s | mass density (293.15 K, m1 = 0.1002): 1001.66 ± 0.034 kg/m3 | mass density (293.15 K, m1 = 0.1501): 1003.35 ± 0.035 kg/m3 | mass density (293.15 K, m1 = 0.2001): 1005.04 ± 0.036 kg/m3 and 1005.03 ± 0.036 kg/m3 | mass density (293.15 K, m1 = 0.2503): 1006.7 ± 0.037 kg/m3 and 1006.71 ± 0.037 kg/m3 | mass density (293.15 K, m1 = 0.3005): 1008.35 ± 0.038 kg/m3 | mass density (293.15 K, m1 = 0.35): 1009.97 ± 0.039 kg/m3 | speed of sound (298.15 K, m1 = 0.1002): 1501.7 ± 0.75 m/s | speed of sound (298.15 K, m1 = 0.1501): 1504.1 ± 0.75 m/s and 1504.2 ± 0.75 m/s | speed of sound (298.15 K, m1 = 0.2001): 1506.6 ± 0.75 m/s | speed of sound (298.15 K, m1 = 0.2503): 1509 ± 0.75 m/s and 1509.1 ± 0.75 m/s | speed of sound (298.15 K, m1 = 0.3005): 1511.5 ± 0.75 m/s | speed of sound (298.15 K, m1 = 0.35): 1513.9 ± 0.76 m/s | mass density (298.15 K, m1 = 0.1002): 1000.47 ± 0.034 kg/m3 | mass density (298.15 K, m1 = 0.1501): 1002.14 ± 0.035 kg/m3 and 1002.15 ± 0.035 kg/m3 | mass density (298.15 K, m1 = 0.2001): 1003.82 ± 0.036 kg/m3 | mass density (298.15 K, m1 = 0.2503): 1005.47 ± 0.037 kg/m3 | mass density (298.15 K, m1 = 0.3005): 1007.1 ± 0.038 kg/m3 and 1007.11 ± 0.038 kg/m3 | mass density (298.15 K, m1 = 0.35): 1008.7 ± 0.039 kg/m3 and 1008.71 ± 0.039 kg/m3 | speed of sound (303.15 K, m1 = 0.1002): 1513.8 ± 0.75 m/s | speed of sound (303.15 K, m1 = 0.1501): 1516.2 ± 0.75 m/s | speed of sound (303.15 K, m1 = 0.2001): 1518.5 ± 0.75 m/s | speed of sound (303.15 K, m1 = 0.2503): 1520.8 ± 0.76 m/s | speed of sound (303.15 K, m1 = 0.3005): 1523.1 ± 0.76 m/s and 1523 ± 0.76 m/s | speed of sound (303.15 K, m1 = 0.35): 1525.3 ± 0.76 m/s | mass density (303.15 K, m1 = 0.1002): 999.044 ± 0.034 kg/m3 and 999.045 ± 0.034 kg/m3 | mass density (303.15 K, m1 = 0.1501): 1000.71 ± 0.035 kg/m3 | mass density (303.15 K, m1 = 0.2001): 1002.36 ± 0.036 kg/m3 and 1002.37 ± 0.036 kg/m3 | mass density (303.15 K, m1 = 0.2503): 1004 ± 0.036 kg/m3 | mass density (303.15 K, m1 = 0.3005): 1005.62 ± 0.037 kg/m3 | mass density (303.15 K, m1 = 0.35): 1007.22 ± 0.038 kg/m3 and 1007.21 ± 0.038 kg/m3 | speed of sound (308.15 K, m1 = 0.1002): 1524.3 ± 0.75 m/s | speed of sound (308.15 K, m1 = 0.1501): 1526.5 ± 0.76 m/s and 1526.4 ± 0.76 m/s | speed of sound (308.15 K, m1 = 0.2001): 1528.6 ± 0.76 m/s | speed of sound (308.15 K, m1 = 0.2503): 1530.8 ± 0.76 m/s | speed of sound (308.15 K, m1 = 0.3005): 1533 ± 0.76 m/s and 1532.9 ± 0.76 m/s | speed of sound (308.15 K, m1 = 0.35): 1535.1 ± 0.76 m/s and 1535 ± 0.76 m/s | mass density (308.15 K, m1 = 0.1002): 997.404 ± 0.035 kg/m3 and 997.402 ± 0.035 kg/m3 | mass density (308.15 K, m1 = 0.1501): 999.052 ± 0.035 kg/m3 and 999.053 ± 0.035 kg/m3 | mass density (308.15 K, m1 = 0.2001): 1000.7 ± 0.035 kg/m3 | mass density (308.15 K, m1 = 0.2503): 1002.33 ± 0.036 kg/m3 | mass density (308.15 K, m1 = 0.3005): 1003.93 ± 0.037 kg/m3 and 1003.94 ± 0.037 kg/m3 | mass density (308.15 K, m1 = 0.35): 1005.51 ± 0.038 kg/m3 and 1005.52 ± 0.038 kg/m3 | speed of sound (318.15 K, m1 = 0.1002): 1540.4 ± 0.76 m/s | speed of sound (318.15 K, m1 = 0.1501): 1542.3 ± 0.76 m/s and 1542.4 ± 0.76 m/s | speed of sound (318.15 K, m1 = 0.2001): 1544.2 ± 0.76 m/s and 1544.3 ± 0.76 m/s | speed of sound (318.15 K, m1 = 0.2503): 1546.2 ± 0.77 m/s and 1546.3 ± 0.77 m/s | speed of sound (318.15 K, m1 = 0.3005): 1548.1 ± 0.77 m/s and 1548.2 ± 0.77 m/s | speed of sound (318.15 K, m1 = 0.35): 1549.9 ± 0.77 m/s and 1550 ± 0.77 m/s and 1550.1 ± 0.77 m/s | mass density (318.15 K, m1 = 0.1002): 993.545 ± 0.037 kg/m3 and 993.543 ± 0.037 kg/m3 | mass density (318.15 K, m1 = 0.1501): 995.176 ± 0.036 kg/m3 and 995.177 ± 0.036 kg/m3 | mass density (318.15 K, m1 = 0.2001): 996.806 ± 0.036 kg/m3 and 996.808 ± 0.036 kg/m3 | mass density (318.15 K, m1 = 0.2503): 998.41 ± 0.036 kg/m3 and 998.412 ± 0.036 kg/m3 | mass density (318.15 K, m1 = 0.3005): 1000 ± 0.035 kg/m3 | mass density (318.15 K, m1 = 0.35): 1001.56 ± 0.036 kg/m3
